Assay results taken from US8415469B2, “Compounds and methods for kinase modulation, and indications therefor” (Plexxikon Inc., priority 2005, dated 2013).

Tests used:
Assay type in all cases: biochemical
[1] = molecular target: T1, B-Raf V600E (Homo sapiens, UniProt P15056, V600E); test: AlphaScreen kinase assay, B-Raf V600E; conditions: read-out: IC50, activity toward kinase B-Raf V600E
T1 construct: P4254. pFastBacBD-CDC37 BRAF D437-K722-X, V600E; His6 with pFastBac HT leader (TEV site) (N); made in house; host or cells: Sf9 (baculovirus; chaperone CDC37 co-expressed)
T1 sequence (P15056 with tags, fused parts or gaps V600E): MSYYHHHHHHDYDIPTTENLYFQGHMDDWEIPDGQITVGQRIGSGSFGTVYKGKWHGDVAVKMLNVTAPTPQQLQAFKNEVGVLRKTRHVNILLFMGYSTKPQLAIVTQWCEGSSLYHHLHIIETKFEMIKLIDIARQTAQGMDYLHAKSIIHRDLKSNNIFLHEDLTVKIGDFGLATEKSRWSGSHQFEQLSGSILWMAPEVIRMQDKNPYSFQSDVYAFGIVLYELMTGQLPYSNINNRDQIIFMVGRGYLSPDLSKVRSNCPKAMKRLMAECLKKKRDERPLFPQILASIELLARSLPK

[2] = molecular target: T2, Fms (Homo sapiens, UniProt P07333); test: AlphaScreen kinase assay, Fms; conditions: read-out: IC50, activity toward kinase Fms
T2 construct: purchased Upstate Biotechnology
T2 sequence (P07333 20-972): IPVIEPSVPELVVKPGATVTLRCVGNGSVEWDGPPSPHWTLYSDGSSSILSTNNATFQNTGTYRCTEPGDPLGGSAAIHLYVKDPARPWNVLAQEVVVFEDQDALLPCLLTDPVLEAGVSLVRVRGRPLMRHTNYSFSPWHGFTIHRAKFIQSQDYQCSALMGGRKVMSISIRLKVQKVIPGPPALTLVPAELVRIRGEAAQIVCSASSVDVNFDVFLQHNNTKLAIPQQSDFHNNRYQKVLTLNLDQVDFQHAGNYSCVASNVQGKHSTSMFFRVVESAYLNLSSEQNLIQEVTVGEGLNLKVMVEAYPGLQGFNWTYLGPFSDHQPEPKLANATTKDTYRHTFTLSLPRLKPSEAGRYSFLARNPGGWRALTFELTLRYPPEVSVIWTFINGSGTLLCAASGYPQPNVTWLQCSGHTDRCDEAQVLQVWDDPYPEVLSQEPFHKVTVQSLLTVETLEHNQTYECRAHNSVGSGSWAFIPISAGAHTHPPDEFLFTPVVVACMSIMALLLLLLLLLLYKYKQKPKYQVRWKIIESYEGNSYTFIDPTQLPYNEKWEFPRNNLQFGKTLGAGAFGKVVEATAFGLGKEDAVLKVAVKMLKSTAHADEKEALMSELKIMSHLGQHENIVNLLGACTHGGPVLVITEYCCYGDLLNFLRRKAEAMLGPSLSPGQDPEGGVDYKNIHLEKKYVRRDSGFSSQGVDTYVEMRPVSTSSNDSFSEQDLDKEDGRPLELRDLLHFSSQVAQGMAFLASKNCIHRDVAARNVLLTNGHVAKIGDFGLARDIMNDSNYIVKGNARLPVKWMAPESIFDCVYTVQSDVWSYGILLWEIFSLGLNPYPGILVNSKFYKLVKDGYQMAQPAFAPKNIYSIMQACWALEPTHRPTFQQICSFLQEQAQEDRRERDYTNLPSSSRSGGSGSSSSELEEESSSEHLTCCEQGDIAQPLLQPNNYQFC

[3] = molecular target: T3, Jnk2 (Homo sapiens, UniProt P45984); test: AlphaScreen kinase assay, Jnk2; conditions: read-out: IC50, activity toward kinase Jnk2
T3 construct: purchased Roche Protein Expression Group (Indianapolis, IN)
T3 sequence (P45984 whole entry): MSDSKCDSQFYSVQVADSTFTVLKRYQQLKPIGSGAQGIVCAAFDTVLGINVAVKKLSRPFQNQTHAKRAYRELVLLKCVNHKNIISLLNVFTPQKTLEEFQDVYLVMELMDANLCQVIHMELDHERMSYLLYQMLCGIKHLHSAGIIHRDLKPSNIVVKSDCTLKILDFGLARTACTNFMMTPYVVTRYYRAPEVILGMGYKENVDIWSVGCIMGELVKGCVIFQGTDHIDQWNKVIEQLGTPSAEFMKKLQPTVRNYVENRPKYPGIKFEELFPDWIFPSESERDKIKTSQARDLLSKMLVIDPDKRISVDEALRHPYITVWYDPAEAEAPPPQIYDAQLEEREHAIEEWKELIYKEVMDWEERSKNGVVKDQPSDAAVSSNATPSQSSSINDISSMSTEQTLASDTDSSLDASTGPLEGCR
How it was run: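 Emission from acceptor beads reports phosphorylated biotin-peptide bridging antibody-coated acceptor and streptavidin donor beads; loss of signal reflects kinase inhibition. Eight-point, threefold dilution series prepared from 20 mM DMSO stocks.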

[4] = molecular target: T4, Jnk1 (Homo sapiens, UniProt P45983); test: AlphaScreen kinase assay, Jnk1; conditions: read-out: IC50, activity toward kinase Jnk1
T4 construct: purchased Upstate Biotechnology
T4 sequence (P45983 whole entry): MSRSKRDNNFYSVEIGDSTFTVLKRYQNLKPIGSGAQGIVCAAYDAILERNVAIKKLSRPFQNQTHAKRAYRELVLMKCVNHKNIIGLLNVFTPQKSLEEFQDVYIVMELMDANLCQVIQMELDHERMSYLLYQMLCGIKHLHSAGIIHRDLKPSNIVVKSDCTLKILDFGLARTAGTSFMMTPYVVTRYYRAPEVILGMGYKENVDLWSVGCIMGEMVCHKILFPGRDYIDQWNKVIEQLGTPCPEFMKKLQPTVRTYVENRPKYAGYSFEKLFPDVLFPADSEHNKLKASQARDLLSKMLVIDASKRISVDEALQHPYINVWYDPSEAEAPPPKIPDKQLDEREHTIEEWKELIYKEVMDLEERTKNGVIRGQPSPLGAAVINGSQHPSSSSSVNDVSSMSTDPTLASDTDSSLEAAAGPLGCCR
Description: AlphaScreen assay was used to screen additional kinases. The assay is similarly dependent on the phosphorylation of a peptide substrate. In this assay, an antibody that recognizes phosphorylated substrate is bound to an acceptor bead. The peptide substrate is attached to biotin, which binds to a donor head that contains streptavidin. Thus phosphorylated substrate is bound by antibody and streptavidin, bringing the donor and acceptor heads into close proximity when kinase is not inhibited. The donor produces singlet oxygen which results in emission from the acceptor when they are in close proximity. Conversely, when kinase is inhibited, the donor and acceptor beads are not associated and the emission from the acceptor is reduced.
AlphaScreen assays were done using compounds dissolved in DMSO to a concentration of 20 mM. The compounds were diluted accordingly to the desired final concentrations in each sample well, using 1:3 serial dilution for a total of 8 concentration points. Plates were prepared such that each kinase reaction is 20 μl in 1× kinase buffer, 5% DMSO and 10 μM ATP. After incubation of the kinase reaction for 1 hour at room temperature, 5 μl of donor beads in stop buffer (50 mM EDTA in 1× kinase buffer) was added, the sample was mixed and incubated for 20 minutes at room temperature before adding 5 μl of acceptor beads in stop buffer. The samples were incubated for 60 minutes at room temperature and the signal per well was read on AlphaQuest reader.

[5] = molecular target: T5, B-Raf (Homo sapiens, UniProt P15056); test: AlphaScreen kinase assay, B-Raf; conditions: read-out: IC50, activity toward kinase B-Raf
T5 construct: purchased Upstate Biotechnology
T5 sequence (P15056 whole entry): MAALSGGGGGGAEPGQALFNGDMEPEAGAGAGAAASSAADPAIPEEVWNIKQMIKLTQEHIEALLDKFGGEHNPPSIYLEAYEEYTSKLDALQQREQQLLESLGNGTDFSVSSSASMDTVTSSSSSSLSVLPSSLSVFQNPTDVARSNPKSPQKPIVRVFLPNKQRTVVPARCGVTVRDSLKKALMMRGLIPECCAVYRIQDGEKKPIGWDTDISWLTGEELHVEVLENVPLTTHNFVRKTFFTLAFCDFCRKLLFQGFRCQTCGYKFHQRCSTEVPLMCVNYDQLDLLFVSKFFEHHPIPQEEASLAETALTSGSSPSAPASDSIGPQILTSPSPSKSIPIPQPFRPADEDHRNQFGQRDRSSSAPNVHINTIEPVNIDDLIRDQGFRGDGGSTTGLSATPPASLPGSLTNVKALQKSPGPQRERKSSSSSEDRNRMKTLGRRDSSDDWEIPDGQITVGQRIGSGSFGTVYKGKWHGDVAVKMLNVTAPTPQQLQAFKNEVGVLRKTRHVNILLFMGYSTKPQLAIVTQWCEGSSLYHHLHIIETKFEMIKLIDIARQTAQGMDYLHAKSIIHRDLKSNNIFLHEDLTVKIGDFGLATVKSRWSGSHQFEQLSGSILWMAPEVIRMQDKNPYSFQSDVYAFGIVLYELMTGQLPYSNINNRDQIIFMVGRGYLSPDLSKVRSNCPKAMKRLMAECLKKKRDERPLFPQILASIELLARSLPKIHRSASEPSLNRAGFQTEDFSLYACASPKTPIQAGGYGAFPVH

[6] = molecular target: T6, Jnk3 (Homo sapiens, UniProt P53779); test: AlphaScreen kinase assay, Jnk3; conditions: read-out: IC50, activity toward kinase Jnk3
T6 construct: purchased Upstate Biotechnology
T6 sequence (P53779 whole entry): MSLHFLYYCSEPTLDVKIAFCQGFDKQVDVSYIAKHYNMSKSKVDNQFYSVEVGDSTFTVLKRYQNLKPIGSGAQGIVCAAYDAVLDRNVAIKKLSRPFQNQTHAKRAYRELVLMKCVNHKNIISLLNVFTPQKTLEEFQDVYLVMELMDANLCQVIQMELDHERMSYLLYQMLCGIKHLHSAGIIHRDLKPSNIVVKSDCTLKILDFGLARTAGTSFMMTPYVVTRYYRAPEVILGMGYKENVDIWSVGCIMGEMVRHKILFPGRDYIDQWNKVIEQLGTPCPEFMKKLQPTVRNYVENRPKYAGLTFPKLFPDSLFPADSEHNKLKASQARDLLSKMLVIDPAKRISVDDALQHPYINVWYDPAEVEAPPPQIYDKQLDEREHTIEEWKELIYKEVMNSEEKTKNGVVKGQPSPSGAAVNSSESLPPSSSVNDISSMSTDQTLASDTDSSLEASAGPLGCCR

[7] = molecular target: T7, Kit (Homo sapiens, UniProt P10721); test: AlphaScreen kinase assay, Kit; conditions: read-out: IC50, activity toward kinase Kit
T7 construct: P1332.N6 BI PTP KIT M552-K948-X COD; His6 (N); made in house; host or cells: E. coli (PTP1B co-expressed)
T7 sequence (P10721 with tags, fused parts or gaps): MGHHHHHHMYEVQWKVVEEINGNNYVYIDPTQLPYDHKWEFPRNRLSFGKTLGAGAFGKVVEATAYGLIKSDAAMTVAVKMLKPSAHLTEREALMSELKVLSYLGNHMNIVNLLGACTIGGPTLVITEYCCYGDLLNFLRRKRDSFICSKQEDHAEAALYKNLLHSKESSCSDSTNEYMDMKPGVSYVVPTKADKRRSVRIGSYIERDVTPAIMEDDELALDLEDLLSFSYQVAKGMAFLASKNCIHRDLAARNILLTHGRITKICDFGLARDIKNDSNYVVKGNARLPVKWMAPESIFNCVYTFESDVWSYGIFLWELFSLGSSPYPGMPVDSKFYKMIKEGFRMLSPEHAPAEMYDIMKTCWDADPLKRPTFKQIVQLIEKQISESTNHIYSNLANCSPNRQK

[8] = molecular target: T8, Flt1 (Homo sapiens, UniProt P17948); test: AlphaScreen kinase assay, Flt1; conditions: read-out: IC50, activity toward kinase Flt1
T8 construct: P1826.pETN6 BI-PTP FLT1 M799-D1165-X WT; His6 (N); made in house; host or cells: E. coli (PTP1B co-expressed)
T8 sequence (P17948 with tags, fused parts or gaps): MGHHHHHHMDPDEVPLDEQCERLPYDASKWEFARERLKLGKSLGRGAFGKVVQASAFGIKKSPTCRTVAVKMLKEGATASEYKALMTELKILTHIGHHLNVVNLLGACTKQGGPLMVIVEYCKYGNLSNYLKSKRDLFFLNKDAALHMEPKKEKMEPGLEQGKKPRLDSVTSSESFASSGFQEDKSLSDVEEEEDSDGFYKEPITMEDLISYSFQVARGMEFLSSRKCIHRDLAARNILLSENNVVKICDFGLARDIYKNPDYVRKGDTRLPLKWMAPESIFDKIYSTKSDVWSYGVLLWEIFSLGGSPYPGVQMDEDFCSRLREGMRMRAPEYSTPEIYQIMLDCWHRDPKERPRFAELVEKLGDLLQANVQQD

[9] = molecular target: T9, FGFR1 (Homo sapiens, UniProt P11362, C488A/C584S); test: AlphaScreen kinase assay, FGFR1; conditions: read-out: IC50, activity toward kinase FGFR
T9 construct: P1351.pET N6 BI-PTP FGFR A458-E765-X C488A, C584S; made in house; host or cells: E. coli (PTP1B co-expressed)
T9 sequence (P11362 458-765 C488A/C584S): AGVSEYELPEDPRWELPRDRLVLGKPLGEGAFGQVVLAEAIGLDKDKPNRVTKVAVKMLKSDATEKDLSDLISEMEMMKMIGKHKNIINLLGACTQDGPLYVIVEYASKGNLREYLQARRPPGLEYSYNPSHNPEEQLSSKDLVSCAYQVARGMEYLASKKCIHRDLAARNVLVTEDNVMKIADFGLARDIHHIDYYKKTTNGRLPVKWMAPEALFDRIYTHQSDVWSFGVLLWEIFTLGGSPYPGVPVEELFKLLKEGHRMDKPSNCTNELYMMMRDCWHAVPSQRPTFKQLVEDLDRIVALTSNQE

Measured: IC50

Cc1noc(NC(=O)Nc2cccc(C(=O)c3c[nH]c4ncccc34)c2)c1C [Compound P-1767]
not listed: [8] | [9]
≤ 10 µM: all other assays above

NC(=O)Nc1ccc(F)c(C(=O)c2c[nH]c3ncc(Br)cc23)c1 [Compound P-1570, [3-(5-Bromo-1H-pyrrolo[2,3-b]pyridine-3-carbonyl)-4-fluoro-phenyl]-urea]
not listed: [7] | [9]
≤ 10 µM: all other assays above

NC(=O)Nc1ccc(F)c(C(=O)c2c[nH]c3ncc(-c4ccccc4)cc23)c1 [Compound P-1589, [4-Fluoro-3-(5-phenyl-1H-pyrrolo[2,3-b]pyridine-3-carbonyl)-phenyl]-urea]
not listed: [7]
≤ 10 µM: all other assays above

CCCCNC(=O)Nc1cccc(C(=O)c2c[nH]c3ncc(-c4cccnc4)cc23)c1Cl [Compound P-1828, 1-Butyl-3-[2-chloro-3-(5-pyridin-3-yl-1H-pyrrolo[2,3-b]pyridine-3-carbonyl)-phenyl]-urea]
not listed: [7] | [8] | [9]
≤ 10 µM: all other assays above

O=C(Nc1ccc(F)cc1)Nc1cccc(C(=O)c2c[nH]c3ncc(-c4cccnc4)cc23)c1 [Compound P-1748, 1-(4-Fluoro-phenyl)-3-[3-(5-pyridin-3-yl-1H-pyrrolo[2,3-b]pyridine-3-carbonyl)-phenyl]-urea]
not listed: [7] | [8] | [9]
≤ 10 µM: all other assays above

Cc1cc(NC(=O)Nc2cccc(C(=O)c3c[nH]c4ncccc34)c2)on1 [Compound P-1765, 1-(3-Methyl-isoxazol-5-yl)-3-[3-(1H-pyrrolo[2,3-b]pyridine-3-carbonyl)-phenyl]-urea]
not listed: [7] | [8] | [9]
≤ 10 µM: all other assays above

CCCCNC(=O)Nc1cccc(C(=O)c2c[nH]c3ncc(-c4cccnc4)cc23)c1C [Compound P-1742, 1-Butyl-3-[2-methyl-3-(5-pyridin-3-yl-1H-pyrrolo[2,3-b]pyridine-3-carbonyl)-phenyl]-urea]
not listed: [7] | [8] | [9]
≤ 10 µM: all other assays above

Cc1noc(NC(=O)Nc2cccc(C(=O)c3c[nH]c4ncc(Cl)cc34)c2)c1C [Compound P-1776, 1-[3-(5-Chloro-1H-pyrrolo[2,3-b]pyridine-3-carbonyl)-phenyl]-3-(3,4-dimethyl-isoxazol-5-yl)-urea]
not listed: [8] | [9]
≤ 10 µM: all other assays above

Cc1cccc(NC(=O)Nc2cccc(C(=O)c3c[nH]c4ncc(-c5cccnc5)cc34)c2)c1 [Compound P-1757, 1-[3-(5-Pyridin-3-yl-1H-pyrrolo[2,3-b]pyridine-3-carbonyl)-phenyl]-3-m-tolyl-urea]
not listed: [7] | [8] | [9]
≤ 10 µM: all other assays above

Cc1ccc(NC(=O)Nc2cccc(C(=O)c3c[nH]c4ncc(-c5cccnc5)cc34)c2)cc1 [Compound P-1756, 1-[3-(5-Pyridin-3-yl-1H-pyrrolo[2,3-b]pyridine-3-carbonyl)-phenyl]-3-p-tolyl-urea]
not listed: [7] | [8] | [9]
≤ 10 µM: all other assays above

CCCCNC(=O)Nc1ccc(F)c(C(=O)c2c[nH]c3ncc(-c4cccc(C(N)=O)c4)cc23)c1 [Compound P-1621, 3-{3-[5-(3-Butyl-ureido)-2-fluoro-benzoyl]-1H-pyrrolo[2,3-b]pyridin-5-yl}-benzamide]
not listed: [7]
≤ 10 µM: all other assays above

CCCCNC(=O)n1ccc2c(C(=O)c3c[nH]c4ncc(Br)cc34)cccc21 [Compound P-1687, 4-(5-Bromo-1H-pyrrolo[2,3-b]pyridine-3-carbonyl)-indole-1-carboxylic acid butylamide]
not listed: [7] | [8] | [9]
≤ 10 µM: all other assays above

COc1cccc(NC(=O)Nc2cccc(C(=O)c3c[nH]c4ncc(-c5cccnc5)cc34)c2)c1 [Compound P-1749, 1-(3-Methoxy-phenyl)-3-[3-(5-pyridin-3-yl-1H-pyrrolo[2,3-b]pyridine-3-carbonyl)-phenyl]-urea]
not listed: [7] | [8] | [9]
≤ 10 µM: all other assays above

Cc1ccccc1NC(=O)Nc1cccc(C(=O)c2c[nH]c3ncccc23)c1 [Compound P-1720, 1-[3-(1H-Pyrrolo[2,3-b]pyridine-3-carbonyl)-phenyl]-3-o-tolyl-urea]
not listed: [8] | [9]
≤ 10 µM: all other assays above

O=C(Nc1ccc(Cl)cc1)Nc1cccc(C(=O)c2c[nH]c3ncc(-c4cccnc4)cc23)c1 [Compound P-1750, 1-(4-Chloro-phenyl)-3-[3-(5-pyridin-3-yl-1H-pyrrolo[2,3-b]pyridine-3-carbonyl)-phenyl]-urea]
not listed: [7] | [8] | [9]
≤ 10 µM: all other assays above

Cc1ccccc1NC(=O)Nc1cccc(C(=O)c2c[nH]c3ncc(-c4cccnc4)cc23)c1 [Compound P-1759, 1-[3-(5-Pyridin-3-yl-1H-pyrrolo[2,3-b]pyridine-3-carbonyl)-phenyl]-3-o-tolyl-urea]
not listed: [7] | [8] | [9]
≤ 10 µM: all other assays above
